Assay results reported in US7220769B2, “Azolylbenzamides and analogues and their use for treating osteoporosis” (Nikem Research S.R.L., priority 1999, dated 2007).

How the values were obtained:
osteoclast proton pump = conditions: membrane vesicles from avian osteoclasts, ATP-driven acidification, acridine orange quench; cited from earlier work
osteoclast cultures = conditions: cited from earlier work

In the case of CN1C(C)(C)CC(NC(=O)c2ccc(-c3nc4cc(Cl)c(Cl)cc4[nH]3)cc2)CC1(C)C [Example 1, 4-(5,6-Dichlorobenzimidazol-2-yl)-N-(1,2,2,6,6-pentamethylpiperidin-4-yl)benzamide], the melting point is reported as over 280 °C.
Work on CN1C(C)(C)CC(NC(=O)c2ccc(-c3nc4cc(Cl)ccc4[nH]3)cc2)CC1(C)C [Example 2, 4-(5-Chlorobenzimidazol-2-yl)-N-(1,2,2,6,6-pentamethylpiperidin-4-yl)-benzamide] yielded a melting point of over 250 °C.
Molecule CN1C(C)(C)CC(NC(=O)c2ccc(-c3nc4cc(Cl)c(Cl)cc4[nH]3)c(O)c2)CC1(C)C [Example 3, 4-(5,6-Dichlorobenzimidazol-2-yl)-N-(1,2,2,6,6-pentamethylpiperidin-4-yl)-3-hydroxybenzamide] has a melting point of over 250 °C.
For COc1cc(C(=O)NC2CC(C)(C)N(C)C(C)(C)C2)ccc1-c1nc2cc(Cl)c(Cl)cc2[nH]1 [Example 4, 4-(5,6-Dichlorobenzimidazol-2-yl)-N-(1,2,2,6,6-pentamethylpiperidin-4-yl)-3-methoxybenzamide], the melting point was 285 to 286 °C.
COc1cc(C(=O)NC2CC(C)(C)N(C)C(C)(C)C2)ccc1-c1nc2cc(Cl)c(Cl)cc2n1C [Example 5, 4-(5,6-Dichloro-1-methylbenzimidazol-2-yl)-N-(1,2,2,6,6-pentamethylpiperidin-4-yl)-3-methoxybenzamide] gave a melting point of 178 to 180 °C.
CCOc1cc(C(=O)NC2CC(C)(C)NC(C)(C)C2)ccc1-c1nc2cc(Cl)c(Cl)cc2[nH]1 [Example 6, 4-(5,6-Dichlorobenzimidazol-2-yl)-N-(2,2,6,6-tetramethylpiperidin-4-yl)-3-ethoxybenzamide] gave a melting point of over 280 °C.
COc1cc(C(=O)NCCCN2CCN(c3ncccn3)CC2)ccc1-c1nc2cc(Cl)c(Cl)cc2[nH]1 [Example 7, 4-(5,6-Dichlorobenzimidazol-2-yl)-N-[3-[4-(2-pyrimidinyl)piperazin-1-yl]propyl]-3-methoxybenzamide] gave a melting point of 255 to 258 °C.
Work on O=C(NCCCN1CCN(c2ncccn2)CC1)c1ccc(-c2nc3cc(Cl)c(Cl)cc3[nH]2)c(O)c1 [Example 8, 4-(5,6-Dichlorobenzimidazol-2-yl)-N-[3-[4-(2-pyrimidinyl)piperazin-1-yl]propyl]-3-hydroxybenzamide] yielded a melting point of 258 to 260 °C.
Work on COc1cc(C(=O)NC2CC(C)(C)NC(C)(C)C2)ccc1-c1nc2cc(Cl)c(Cl)cc2[nH]1 [Example 10, 4-(5,6-Dichlorobenzimidazol-2-yl)-N-(2,2,6,6-tetramethylpiperidin-4-yl)-3-methoxybenzamide] yielded a melting point of 233 to 235 °C.
With COc1cc(C(=O)N(C)C2CC(C)(C)NC(C)(C)C2)ccc1-c1nc2cc(Cl)c(Cl)cc2[nH]1 [Example 11, 4-(5,6-Dichlorobenzimidazol-2-yl)-N-(2,2,6,6-tetramethylpiperidin-4-yl)-N-methyl-3-methoxybenzamide] the melting point was 240 to 242 °C.
With Cc1cc(C(=O)NC2CC(C)(C)NC(C)(C)C2)ccc1-c1nc2cc(Cl)c(Cl)cc2[nH]1 [Example 13, 4-(5,6-Dichlorobenzimidazol-2-yl)-N-(2,2,6,6-tetramethylpiperidin-4-yl)-3-methylbenzamide] the melting point was over 250 °C.
With CCOc1cc(C(=O)Nc2cccnc2)ccc1-c1nc2cc(Cl)c(Cl)cc2[nH]1 [Example 15, 4-(5,6-Dichlorobenzimidazol-2-yl)-N-(3-pyridyl)-3-ethoxybenzamide] the melting point was over 260 °C.
In the case of CCOc1cc(C(=O)NCCCO)ccc1-c1nc2cc(Cl)c(Cl)cc2[nH]1 [Example 16, 4-(5,6-Dichlorobenzimidazol-2-yl)-N-(3-hydroxypropyl)-3-ethoxybenzamide], the melting point is reported as 148 to 150 °C.
COc1cc(-c2nc3cc(Cl)c(Cl)cc3[nH]2)c(OC)cc1C(=O)NC1CC(C)(C)N(C)C(C)(C)C1 [Example 17, 4-(5,6-Dichlorobenzimidazol-2-yl)-N-(1,2,2,6,6-pentamethylpiperidin-4-yl)-2,5-dimethoxybenzamide] gave a melting point of over 250 °C.
Work on COc1cc(-c2nc3cc(Cl)c(Cl)cc3[nH]2)c(OC)cc1C(=O)NC1CC(C)(C)NC(C)(C)C1 [Example 18, 4-(5,6-Dichlorobenzimidazol-2-yl)-N-(2,2,6,6-tetramethylpiperidin-4-yl)-2,5-dimethoxybenzamide] yielded a melting point of over 250 °C.
In the case of CCOc1cc(C(=O)NC2CC(C)(C)NC(C)(C)C2)ccc1-c1nc2ccc(Cl)cc2[nH]1 [Example 19, 4-(5-Chlorobenzimidazol-2-yl)-N-(2,2,6,6-tetramethylpiperidin-4-yl)-3-ethoxybenzamide], the melting point is reported as 222 to 225 °C.
For CCN1C(=O)C=CC1=O [N-ethylmaleimide], the “proton transport inhibited / not inhibited” value (osteoclast proton pump) is listed as “inhibited”.
For Cc1nc2c(OCc3ccccc3)cccn2c1CC#N [SCH 28080], the “proton transport inhibited / not inhibited” value (osteoclast proton pump) is given as “not inhibited”.
For CO/C1=C\C(C)=C\[C@@H](C)[C@@H](O)[C@@H](C)C/C(C)=C/C=C/[C@H](OC)[C@@H]([C@@H](C)[C@@H](O)[C@H](C)[C@@]2(O)C[C@@H](O)[C@H](C)[C@@H](C(C)C)O2)OC1=O [bafilomycin A1], the “proton transport inhibited / not inhibited” value (osteoclast proton pump) is listed as “inhibited” and the inhibit bone resorption (osteoclast cultures) is listed as “able to inhibit bone resorption”.
In the case of C[C@@H]1O[C@@H](O[C@H]2C[C@@H](O)[C@]3(CO)[C@H]4[C@H](O)C[C@]5(C)[C@@H](C6=CC(=O)OC6)CC[C@]5(O)[C@@H]4CC[C@]3(O)C2)[C@H](O)[C@H](O)[C@H]1O [ouabain], the “proton transport inhibited / not inhibited” value (osteoclast proton pump) is given as “not inhibited”.
In the case of [Na+].[Na+].[Na+].[O]=[V]([O-])([O-])[O-] [sodium orthovanadate], the “proton transport inhibited / not inhibited” value (osteoclast proton pump) is listed as “not inhibited”.
